Measurements reported in the supplement of paper PMC4862054.

Legend:
Details in all cases: incubation time: 72 h
[1] = tested on: MDA-MB-436; assay: normalised response (% of control), CellTox Green; higher = less cell death (100 = DMSO, 0 = benzethonium chloride kill control)
Procedure, shortened: (§1)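 After 72 h with compound in 384-well plates, breast cancer cell lines seeded as 20 µl suspension were read for CellTox Green fluorescence at 485/520 nm. CellTiter-Glo luminescence was then read after 10 min at room temperature. Compound was present at 5 concentrations in 10-fold steps over a 10,000-fold range set per compound, and plates were normalised to 0.1 % DMSO (100) and a positive kill control (0). Values are normalised signals, each at a single concentration.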

[2] = tested on: Hs578T; assay: as above
Procedure, shortened: as §1

[3] = tested on: MDA-MB-453; assay: as above
Procedure, shortened: as §1

[4] = tested on: HCC1937; assay: as above
Procedure, shortened: as §1

[5] = tested on: HCC1143; assay: as above
Procedure, shortened: as §1

[6] = tested on: CAL-51; assay: as above
Procedure, shortened: as §1

[7] = tested on: MFM-223; assay: as above
Procedure, shortened: as §1

[8] = tested on: BT-474; assay: as above
Procedure, shortened: as §1

[9] = tested on: BT-549; assay: as above
Procedure, shortened: as §1

[10] = tested on: HCC1599; assay: as above
Procedure, shortened: as §1

[11] = tested on: HDQ-P1; assay: as above
Procedure, shortened: as §1

[12] = tested on: MCF-10A; assay: as above
Procedure, shortened: as §1

[13] = tested on: MDA-MB-231; assay: as above
Procedure, shortened: as §1

[14] = tested on: CAL-148; assay: as above
Procedure, shortened: as §1

[15] = tested on: MDA-MB-468; assay: as above
Procedure, shortened: as §1

[16] = tested on: CAL-120; assay: as above
Procedure, shortened: as §1

[17] = tested on: CAL-85-1; assay: as above
Procedure, shortened: as §1

[18] = tested on: DU-4475; assay: as above
Procedure, shortened: as §1

[19] = tested on: MDA-MB-436; assay: normalised response (% of control), CellTiter-Glo; higher = more viable cells (100 = DMSO, 0 = benzethonium chloride kill control)
Procedure, shortened: as §1

[20] = tested on: Hs578T; assay: as above
Procedure, shortened: as §1

[21] = tested on: MDA-MB-453; assay: as above
Procedure, shortened: as §1

[22] = tested on: HCC1937; assay: as above
Procedure, shortened: as §1

[23] = tested on: HCC1143; assay: as above
Procedure, shortened: as §1

[24] = tested on: CAL-51; assay: as above
Procedure, shortened: as §1

[25] = tested on: MFM-223; assay: as above
Procedure, shortened: as §1

[26] = tested on: BT-474; assay: as above
Procedure, shortened: as §1

[27] = tested on: BT-549; assay: as above
Procedure, shortened: as §1

[28] = tested on: HCC1599; assay: as above
Procedure, shortened: as §1

[29] = tested on: HDQ-P1; assay: as above
Procedure, shortened: as §1

[30] = tested on: MCF-10A; assay: as above
Procedure, shortened: as §1

[31] = tested on: MDA-MB-231; assay: as above
Procedure, shortened: as §1

[32] = tested on: SK-BR-3; assay: as above
Procedure, shortened: as §1

[33] = tested on: CAL-148; assay: as above
Procedure, shortened: as §1

[34] = tested on: MDA-MB-468; assay: as above
Procedure, shortened: as §1

[35] = tested on: CAL-120; assay: as above
Procedure, shortened: as §1

[36] = tested on: CAL-85-1; assay: as above
Procedure, shortened: as §1

[37] = tested on: DU-4475; assay: as above
Procedure, shortened: as §1

## C[C@]12O[C@H](C[C@]1(O)CO)n1c3ccccc3c3c4c(c5c6ccccc6n2c5c31)CNC4=O [Lestaurtinib] (10 nM)
[1]
  normalised response: 78.8%
[2]
  normalised response: 108%
[3]
  normalised response: 101%
[4]
  normalised response: 103%
[5]
  normalised response: 50.3%
[6]
  normalised response: 98.4%
[7]
  normalised response: 103%
[8]
  normalised response: 99.3%
[9]
  normalised response: 100%
[10]
  normalised response: 90.6%
[11]
  normalised response: 104%
[12]
  normalised response: 91.2%
[13]
  normalised response: 97.3%
[14]
  normalised response: 87.7%
[15]
  normalised response: 60%
[16]
  normalised response: 97.4%
[17]
  normalised response: 96.2%
[18]
  normalised response: 94.2%
[19]
  normalised response: 93.8%
[20]
  normalised response: 90.2%
[21]
  normalised response: 81.1%
[22]
  normalised response: 94.3%
[23]
  normalised response: 105%
[24]
  normalised response: 103%
[25]
  normalised response: 97.2%
[26]
  normalised response: 98.8%
[27]
  normalised response: 109%
[28]
  normalised response: 96.9%
[29]
  normalised response: 102%
[30]
  normalised response: 83.7%
[31]
  normalised response: 101%
[32]
  normalised response: 82.4%
[33]
  normalised response: 107%
[34]
  normalised response: 78.7%
[35]
  normalised response: 92.2%
[36]
  normalised response: 102%
[37]
  normalised response: 98%

## C[C@]12C=CC(=O)C=C1CC[C@@H]1[C@@H]2[C@@H](O)C[C@@]2(C)[C@H]1CC[C@]2(O)C(=O)CO [Prednisolone] (100 nM)
[1]
  normalised response: 89.9%
[2]
  normalised response: 110%
[3]
  normalised response: 104%
[4]
  normalised response: 115%
[5]
  normalised response: 118%
[6]
  normalised response: 117%
[7]
  normalised response: 96.1%
[8]
  normalised response: 101%
[9]
  normalised response: 97.2%
[10]
  normalised response: 103%
[11]
  normalised response: 106%
[12]
  normalised response: 95.5%
[13]
  normalised response: 134%
[14]
  normalised response: 103%
[15]
  normalised response: 108%
[16]
  normalised response: 102%
[17]
  normalised response: 85.8%
[18]
  normalised response: 98.8%
[19]
  normalised response: 101%
[20]
  normalised response: 113%
[21]
  normalised response: 95%
[22]
  normalised response: 103%
[23]
  normalised response: 102%
[24]
  normalised response: 112%
[25]
  normalised response: 110%
[26]
  normalised response: 146%
[27]
  normalised response: 96%
[28]
  normalised response: 105%
[29]
  normalised response: 89.3%
[30]
  normalised response: 102%
[31]
  normalised response: 146%
[32]
  normalised response: 104%
[33]
  normalised response: 114%
[34]
  normalised response: 109%
[35]
  normalised response: 87.4%
[36]
  normalised response: 109%
[37]
  normalised response: 106%

## CCN(CC)CCNC(=O)c1c(C)[nH]c(/C=C2\C(=O)Nc3ccc(F)cc32)c1C [Sunitinib] (10 nM)
[1]
  normalised response: 103%
[2]
  normalised response: 82.4%
[3]
  normalised response: 107%
[4]
  normalised response: 66.9%
[5]
  normalised response: 57.7%
[6]
  normalised response: 108%
[7]
  normalised response: 98%
[8]
  normalised response: 100%
[9]
  normalised response: 92.9%
[10]
  normalised response: 114%
[11]
  normalised response: 111%
[12]
  normalised response: 109%
[13]
  normalised response: 104%
[14]
  normalised response: 105%
[15]
  normalised response: 141%
[16]
  normalised response: 99.3%
[17]
  normalised response: 89.5%
[18]
  normalised response: 98.4%
[19]
  normalised response: 96.9%
[20]
  normalised response: 103%
[21]
  normalised response: 97.4%
[22]
  normalised response: 99.2%
[23]
  normalised response: 108%
[24]
  normalised response: 98.8%
[25]
  normalised response: 105%
[26]
  normalised response: 101%
[27]
  normalised response: 108%
[28]
  normalised response: 96.3%
[29]
  normalised response: 99.3%
[30]
  normalised response: 98.5%
[31]
  normalised response: 107%
[32]
  normalised response: 101%
[33]
  normalised response: 106%
[34]
  normalised response: 102%
[35]
  normalised response: 109%
[36]
  normalised response: 103%
[37]
  normalised response: 104%

## Nc1cccc2c1CN(C1CCC(=O)NC1=O)C2=O (configuration not stated) [Lenalidomide] (100 nM)
[1]
  normalised response: 107%
[2]
  normalised response: 109%
[3]
  normalised response: 100%
[5]
  normalised response: 92.4%
[6]
  normalised response: 76.4%
[7]
  normalised response: 107%
[8]
  normalised response: 101%
[9]
  normalised response: 99.6%
[10]
  normalised response: 107%
[11]
  normalised response: 100%
[12]
  normalised response: 77.9%
[13]
  normalised response: 105%
[14]
  normalised response: 104%
[15]
  normalised response: 102%
[16]
  normalised response: 97.4%
[17]
  normalised response: 101%
[18]
  normalised response: 101%
[19]
  normalised response: 93.2%
[20]
  normalised response: 101%
[21]
  normalised response: 103%
[22]
  normalised response: 95.3%
[23]
  normalised response: 99.1%
[24]
  normalised response: 69.2%
[25]
  normalised response: 103%
[26]
  normalised response: 103%
[27]
  normalised response: 103%
[28]
  normalised response: 111%
[29]
  normalised response: 102%
[30]
  normalised response: 99.3%
[31]
  normalised response: 94.3%
[32]
  normalised response: 98.4%
[33]
  normalised response: 105%
[34]
  normalised response: 111%
[35]
  normalised response: 93.3%
[36]
  normalised response: 100%
[37]
  normalised response: 104%
